Laboratory results published in US20260365611A1, “CRYSTALLINE SALTS OF 2-PHENYL-2-AMINOCYCLOHEXAN-1-ONE DERIVATIVES” (priority 2023, published 2026).

Assay: Polymorph screening (slurry, anti-solvent addition, thermal cycling, slow evaporation, vapor diffusion, polymer-induced crystallization)
Format: physicochemical
Set-up: key: CL: Clear Liquid; HCl-1: Form 1 polymorph; HCl-2: Mixture of Polymorphs of Form 1 and Form 2
Experimental: Based on the approximate solubility of the product of Example 1 (1R HCl Form 1), screening experiments were conducted to find potential additional crystalline forms (polymorphs) using different screening techniques including, but not limited to, slow evaporation, slow cooling, anti-solvent addition, slurry at RT and 50 °C, temperature cycling, diffusion (solid and liquid), and polymer induced crystallization. The various procedures are outlined hereinbelow.
~40 mg of the product of Example 1 was slurried in 0.5-1.0 mL of different solvents in a 4.0 mL glass vial using a magnetic stirrer at RT. The solids in the slurry were stirred for 7 days.
~40 mg of the product of Example 1 was slurried in 0.5-1.0 mL of different solvents in a 4.0 mL glass vial using a magnetic stirrer at 50 °C. […]. The solids in the slurry were stirred for 3 days.
~40 mg of the product of Example 1 was dissolved in a solvent to create a saturated solution and an anti-solvent was added up to 10 volume ratios. The solids, if any, were collected.
~40 mg of the product of Example 1 was dissolved in a solvent, heated, and cooled following temperature cycles of 45 °C/1h→35 °C/4h→25 °C/4h→15 °C/4h→5 °C/4 h for 7 days. The obtained solids (if any) were collected after 7 days.
~40 mg of the product of Example 1 was dissolved in a solvent in a vial to create a saturated solution. The vial opening was covered with parafilm or aluminum foil (2-holes). The vials were kept at RT under the hood. The obtained solids (if any) were collected after 7 days.
~40 mg of the product of Example 1 was dissolved in a solvent to create a saturated solution in a 4.0 mL glass vial. The vial was placed in a 20 mL glass vial containing an anti-solvent. The obtained solids were collected after 7-10 days.
~40 mg of the product of Example 1 was kept in a 4.0 mL glass vial; this vial was placed in a 20 mL glass vial containing a solvent. The solids were collected after 7-10 days.
~40 mg of the product of Example 1 and 2.0 mg of the listed polymer were added to a solvent and kept stirring at RT. The solids in slurry or precipitated solids from solution were collected after 7 days.

SMILES: CN[C@@]1(c2ccc(F)cc2)CCCCC1=O.Cl [1R HCl, (R)-2-(4-fluorophenyl)-2-(methylamino)cyclohexan-1-one hydrochloride]
- Crystal Form (anti-solvent addition, DCM / 1,4-dioxane): CL
- Crystal Form (anti-solvent addition, DCM / Acetone): HCl-1
- Crystal Form (anti-solvent addition, DCM / CPME): HCl-1
- Crystal Form (anti-solvent addition, DCM / EtOAc): HCl-1
- Crystal Form (anti-solvent addition, DCM / Hexane): HCl-1
- Crystal Form (anti-solvent addition, IPA / 1,4-dioxane): CL
- Crystal Form (anti-solvent addition, IPA / Acetone): CL
- Crystal Form (anti-solvent addition, IPA / Heptane): HCl-1
- Crystal Form (anti-solvent addition, IPA / IPAc): HCl-2
- Crystal Form (anti-solvent addition, IPA / MTBE): HCl-2
- Crystal Form (anti-solvent addition, MeOH / Acetone): CL
- Crystal Form (anti-solvent addition, MeOH / EtOAc): HCl-1
- Crystal Form (anti-solvent addition, MeOH / MTBE): HCl-1
- Crystal Form (anti-solvent addition, MeOH / THF): HCl-1
- Crystal Form (anti-solvent addition, MeOH / Toluene): HCl-2
- Crystal Form (anti-solvent addition, Water / 1,4-dioxane): CL
- Crystal Form (anti-solvent addition, Water / ACN): CL
- Crystal Form (anti-solvent addition, Water / THF): CL
- Crystal Form (liquid vapor diffusion RT, DMSO / Acetone): CL
- Crystal Form (liquid vapor diffusion RT, DMSO / EtOAc): CL
- Crystal Form (liquid vapor diffusion RT, DMSO / Toluene): CL
- Crystal Form (liquid vapor diffusion RT, MeOH / 2-MeTHF): CL
- Crystal Form (liquid vapor diffusion RT, MeOH / IPAc): CL
- Crystal Form (liquid vapor diffusion RT, MeOH / MTBE): CL
- Crystal Form (liquid vapor diffusion RT, NMP / 1,4-dioxane): CL
- Crystal Form (liquid vapor diffusion RT, NMP / Acetone): CL
- Crystal Form (liquid vapor diffusion RT, NMP / MTBE): HCl-1
- Crystal Form (polymer induced RT, ACN/H2O (9:1), PEO (Poloxamer 407)): gel
- Crystal Form (polymer induced RT, Acetone/DCM (9:1), PVP): HCl-2
- Crystal Form (polymer induced RT, Acetone/H2O (9:1), PVA): HCl-2
- Crystal Form (polymer induced RT, EtOH/Heptane (3/7), HPMC): HCl-1
- Crystal Form (polymer induced RT, MTBE/IPA (9:1), PVA): HCl-1
- Crystal Form (polymer induced RT, MeOH/H2O (9:1), PVP): gel
- Crystal Form (slow evaporation RT, 7 days, ACN): HCl-1
- Crystal Form (slow evaporation RT, 7 days, Acetone): HCl-1
- Crystal Form (slow evaporation RT, 7 days, DCM): HCl-2
- Crystal Form (slow evaporation RT, 7 days, DMF): CL
- Crystal Form (slow evaporation RT, 7 days, DMSO): CL
- Crystal Form (slow evaporation RT, 7 days, MeOH): gel
- Crystal Form (slow evaporation RT, 7 days, NMP): CL
- Crystal Form (slow evaporation RT, 7 days, Water): HCl-1
- Crystal Form (slow evaporation RT, 7 days, nPA): HCl-1
- Crystal Form (slurry 50 °C, 3 days, 1,4-dioxane): HCl-1
- Crystal Form (slurry 50 °C, 3 days, 2-MeTHF): HCl-1
- Crystal Form (slurry 50 °C, 3 days, ACN): HCl-1
- Crystal Form (slurry 50 °C, 3 days, Acetone/Toluene (1:1)): HCl-1
- Crystal Form (slurry 50 °C, 3 days, EtOAc): HCl-1
- Crystal Form (slurry 50 °C, 3 days, EtOH): HCl-1
- Crystal Form (slurry 50 °C, 3 days, IPA): HCl-1
- Crystal Form (slurry 50 °C, 3 days, IPAc): HCl-1
- Crystal Form (slurry 50 °C, 3 days, MEK): HCl-1
- Crystal Form (slurry 50 °C, 3 days, MIBK): HCl-1
- Crystal Form (slurry 50 °C, 3 days, MTBE): HCl-1
- Crystal Form (slurry 50 °C, 3 days, MeOH): HCl-1
- Crystal Form (slurry 50 °C, 3 days, THF/H2O (9:1)): gel
- Crystal Form (slurry 50 °C, 3 days, THF/n-Heptane (1:1)): HCl-1
- Crystal Form (slurry 50 °C, 3 days, Toluene): HCl-1
- Crystal Form (slurry 50 °C, 3 days, Water): HCl-1
- Crystal Form (slurry RT, 7 days, 1,4-dioxane): HCl-2
- Crystal Form (slurry RT, 7 days, ACN): HCl-2
- Crystal Form (slurry RT, 7 days, Acetone/H2O (aw = 0.2)): HCl-2
- Crystal Form (slurry RT, 7 days, Acetone/H2O (aw = 0.4)): HCl-2
- Crystal Form (slurry RT, 7 days, Acetone/H2O (aw = 0.6)): gel
- Crystal Form (slurry RT, 7 days, Acetone/H2O (aw = 0.8)): gel
- Crystal Form (slurry RT, 7 days, Acetone/Toluene (1:1)): HCl-1
- Crystal Form (slurry RT, 7 days, Anisole): HCl-1
- Crystal Form (slurry RT, 7 days, CPME): HCl-1
- Crystal Form (slurry RT, 7 days, EtOAc): HCl-1
- Crystal Form (slurry RT, 7 days, H2O): CL
- Crystal Form (slurry RT, 7 days, IPA): HCl-1
- Crystal Form (slurry RT, 7 days, IPAc): HCl-1
- Crystal Form (slurry RT, 7 days, MEK): HCl-1
- Crystal Form (slurry RT, 7 days, MIBK): HCl-1
- Crystal Form (slurry RT, 7 days, MTBE): HCl-1
- Crystal Form (slurry RT, 7 days, MeOH): HCl-1
- Crystal Form (slurry RT, 7 days, PEG): amorphous
- Crystal Form (slurry RT, 7 days, THF): HCl-2
- Crystal Form (slurry RT, 7 days, THF/n-Heptane (1:1)): HCl-1
- Crystal Form (slurry RT, 7 days, Toluene): HCl-1
- Crystal Form (solid vapor diffusion RT, 1,4-dioxane): HCl-1
- Crystal Form (solid vapor diffusion RT, 2-MeTHF): HCl-1
- Crystal Form (solid vapor diffusion RT, ACN): HCl-1
- Crystal Form (solid vapor diffusion RT, Acetone): HCl-1
- Crystal Form (solid vapor diffusion RT, DCM): CL
- Crystal Form (solid vapor diffusion RT, EtOAc): HCl-1
- Crystal Form (solid vapor diffusion RT, EtOH): CL
- Crystal Form (solid vapor diffusion RT, Hexane): HCl-1
- Crystal Form (solid vapor diffusion RT, MEK): HCl-1
- Crystal Form (solid vapor diffusion RT, MTBE): HCl-1
- Crystal Form (solid vapor diffusion RT, MeOH): CL
- Crystal Form (solid vapor diffusion RT, Toluene): HCl-1
- Crystal Form (thermal cycling, 7 days, ACN): HCl-1
- Crystal Form (thermal cycling, 7 days, DMSO): HCl-1
- Crystal Form (thermal cycling, 7 days, EtOH/acetone (3:7)): gel
- Crystal Form (thermal cycling, 7 days, EtOH/n-Heptane (3:7)): HCl-1
- Crystal Form (thermal cycling, 7 days, IPA): HCl-2
- Crystal Form (thermal cycling, 7 days, IPA/Toluene (3:7)): HCl-2
- Crystal Form (thermal cycling, 7 days, MeOH/IPAc (1:9)): HCl-1
